# Patent US9896441B2 (Lycera Corporation, priority 2014, dated 2018)
# Legend:
# RORγ-LBD = target: T1, RORγ-LBD (Homo sapiens, UniProt P51449); test: RORγ-Ligand Binding Domain (LBD) TR-FRET Assay; assay type: biochemical; settings: for TR-FRET Assay Max Response: maximum response;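 for TR-FRET Assay Max Response: 665/615 nm signal ratio set to 100 without ursolic acid or test compound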
# T1 construct: made in house; host or cells: SF9 cells (baculovirus); used as diluted lysate
# T1 sequence (P51449 269-508 limits assumed): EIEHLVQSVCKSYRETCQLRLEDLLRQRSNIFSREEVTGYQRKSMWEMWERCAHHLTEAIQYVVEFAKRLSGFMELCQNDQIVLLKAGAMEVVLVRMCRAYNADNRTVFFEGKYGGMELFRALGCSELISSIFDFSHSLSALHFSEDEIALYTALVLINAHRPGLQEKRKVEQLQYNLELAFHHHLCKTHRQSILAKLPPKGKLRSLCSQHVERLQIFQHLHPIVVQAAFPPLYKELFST
# How it was run: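 Compounds, diluted in DMSO and then in assay buffer (1% DMSO final), were combined with His-tagged RORγ-LBD lysate at roughly 3 nM final and a 200 nM biotinylated SRC1 LXXLL peptide. Ursolic acid was included at 2 μM final. Coactivator recruitment was detected by TR-FRET.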
# Gal4-RORγ-LBD = target: T2, Gal4-RORγ-LBD (Homo sapiens, UniProt P51449); test: Gal4-RORγ Luciferase Reporter Assay in HEK-293T Cells; assay type: cell-based; settings: HEK-293 cells; for Gal4-RORγ Assay Max Response: maximum response
# T2 construct: expressed in transfected cells
# T2 sequence (P51449 269-508 limits assumed): T1 sequence (P51449 269-508 limits assumed)
# How it was run: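 Max Response was taken as the upper plateau of a 4-parameter logistic fit of luciferase signal, normalized to 100 for wells without ursolic acid or compound. Transiently Gal4-RORγ-LBD/Gal4-luc transfected HEK-293 cells carrying […] ursolic acid were incubated with test compounds (0.2% DMSO) overnight at 37 °C and read with One-Glo.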
# [1] = luciferase reporter, with ursolic acid
# [2] = with 2 μM ursolic acid (RORγ antagonist), highest test concentration 10 μM
# [3] = ursolic acid present, luciferase readout
# [4] = luciferase reporter, in presence of ursolic acid
EC50 (RORγ-LBD; RORγ-LBD TR-FRET),EC50 (Gal4-RORγ-LBD; [1]),EC50 (RORγ-LBD; RORγ-LBD TR-FRET assay),EC50 (Gal4-RORγ-LBD; [4]),Compound,TR-FRET Assay Max Response (RORγ-LBD; RORγ-LBD TR-FRET assay),Gal4-RORγ Assay Max Response (Gal4-RORγ-LBD; [4]),further results
< 500 nM,500 to 5000 nM,,,"CCOc1nn(CC)cc1S(=O)(=O)N1C[C@H](CCC(=O)O)Oc2ccc(/C=C/c3ccsc3)cc21 [Example 89K, (S,E)-3-(4-((3-ethoxy-1-ethyl-1H-pyrazol-4-yl)sulfonyl)-6-(2-(thiophen-3-yl)vinyl)-3,4-dihydro-2H-benzo[b][1,4]oxazin-2-yl)propanoic acid]",,,
< 500 nM,500 to 5000 nM,,,"COC(=O)CC[C@H]1CN(S(=O)(=O)c2cccc(C(F)(F)F)c2)c2cc(/C=C3\CCOc4ccccc43)ccc2O1 [Example 38A, methyl (S,E)-3-(6-(chroman-4-ylidenemethyl)-4-((3-(trifluoromethyl)phenyl)sulfonyl)-3,4-dihydro-2H-benzo[b][1,4]oxazin-2-yl)propanoate]",,,
,,,,"O=C(O)CCC[C@H]1CN(S(=O)(=O)c2cccc(C(F)(F)F)c2)c2cc(/C=C/c3c(F)cccc3Cl)ccc2O1 [Example 195D, (S,E)-4-(6-(2-chloro-6-fluorostyryl)-4-((3-(trifluoro-methyl)phenyl)sulfonyl)-3,4-dihydro-2H-benzo[b][1,4]oxazin-2-yl)butanoic acid]",,,EC50 (RORγ-LBD; [2]): < 500 nM; EC50 (Gal4-RORγ-LBD; [3]): < 500 nM
,,< 500 nM,< 500 nM,"CCn1cc(S(=O)(=O)N2C[C@H](CNC(C)=O)Oc3c(F)cc(/C=C(\C)c4c(F)cccc4Cl)cc32)c(Cl)n1 [Example 109A, (S,E)-N-((4-((3-chloro-1-ethyl-1H-pyrazol-4-yl)sulfonyl)-6-(2-(2-chloro-6-fluorophenyl)prop-1-en-1-yl)-8-fluoro-3,4-dihydro-2H-benzo[b][1,4]oxazin-2-yl)methyl)acetamide]",*** (a value in the range of greater than 150 to 200),* (a value in the range of 30 to 90),
< 500 nM,500 to 5000 nM,,,"C/C(=C\c1ccc2c(c1)N(S(=O)(=O)c1cccc(C(F)(F)F)c1)CC(C(=O)O)C2)c1c(F)cccc1C(F)(F)F (stereo not shown) [Example 15C, (E)-7-(2-(2-fluoro-6-(trifluoromethyl)phenyl)prop-1-en-1-yl)-1-((3-(trifluoromethyl)phenyl)sulfonyl)-1,2,3,4-tetrahydroquinoline-3-carboxylic acid]",,,
5000 to 10000 nM,> 10000 nM,,,"CCOc1nn(CC)cc1S(=O)(=O)N1C[C@H](CCC(=O)O)Oc2ccc(/C=C/c3ncccc3F)cc21 [Example 89W, (S,E)-3-(4-((3-ethoxy-1-ethyl-1H-pyrazol-4-yl)sulfonyl)-6-(2-(3-fluoropyridin-2-yl)vinyl)-3,4-dihydro-2H-benzo[b][1,4]-oxazin-2-yl)propanoic acid]",,,
,,< 500 nM,500 to 5000 nM,"C/C(=C\c1ccc2c(c1)N(S(=O)(=O)c1cccc(C(F)(F)F)c1)C[C@H](CCC(=O)N1CCC[C@H]1C(=O)O)O2)c1c(F)cccc1Cl [Example 129J, (3-((S)-6-((E)-2-(2-chloro-6-fluorophenyl)prop-1-en-1-yl)-4-((3-(trifluoromethyl)phenyl)sulfonyl)-3,4-dihydro-2H-benzo[b][1,4]oxazin-2-yl)propanoyl)-L-proline]",**** (a value greater than 200),*** (a value in the range of greater than 150 to 200),
< 500 nM,500 to 5000 nM,,,"O=C(O)CC[C@H]1CN(S(=O)(=O)c2cccc(C(F)(F)F)c2)c2cc(C=C3CCCC3)ccc2O1 [Example 92, (S)-3-(6-(Cyclopentylidenemethyl)-4-((3-(trifluoromethyl)phenyl)sulfonyl)-3,4-dihydro-2H-benzo[b][1,4]oxazin-2-yl)propanoic acid]",,,
< 500 nM,< 500 nM,,,"CCC(=Cc1ccc2c(c1)N(S(=O)(=O)c1cccc(C(F)(F)F)c1)C[C@H](CCC(=O)O)O2)CC [Example 95E, (S)-3-(6-(2-ethylbut-1-en-1-yl)-4-((3-(trifluoromethyl)phenyl)-sulfonyl)-3,4-dihydro-2H-benzo[b][1,4]oxazin-2-yl)propanoic acid]",,,
< 500 nM,< 500 nM,,,"COC(=O)CC[C@H]1CN(S(=O)(=O)c2cccc(OC(F)F)c2)c2cc(/C=C(\C)c3c(F)cccc3Cl)c(F)cc2O1 [Example 43, (S,E)-Methyl 3-(6-(2-(2-chloro-6-fluorophenyl)prop-1-en-1-yl)-4-((3-(difluoromethoxy)phenyl)sulfonyl)-7-fluoro-3,4-dihydro-2H-benzo[b][1,4]oxazin-2-yl)propanoate]",,,
< 500 nM,> 10000 nM,,,"CC(C)Oc1ncc(C(F)(F)F)cc1S(=O)(=O)N1C[C@H](CCC(=O)O)Oc2ccc(/C=C/c3c(F)cccc3Cl)cc21 [Example 89FK, (S,E)-3-(6-(2-chloro-6-fluorostyryl)-4-((2-isopropoxy-5-(trifluoromethyl)pyridin-3-yl)sulfonyl)-3,4-dihydro-2H-benzo[b][1,4]oxazin-2-yl)propanoic acid]",,,
< 500 nM,< 500 nM,,,"COC(=O)CC[C@H]1CN(S(=O)(=O)c2cccc(OC(F)F)c2)c2cc(/C=C/c3ccccc3OC)ccc2O1 [Example 89AZ, (S,E)-methyl 3-(4-((3-(difluoromethoxy)phenyl)sulfonyl)-6-(2-methoxystyryl)-3,4-dihydro-2H-benzo[b][1,4]oxazin-2-yl)propanoate]",,,
,,< 500 nM,< 500 nM,"O=S(=O)(c1cccc(C(F)(F)F)c1)N1C[C@H](CO)Oc2ccc(Oc3ccccc3Cl)cc21 [Example 131, (R)-(6-(2-Chlorophenoxy)-4-((3-(trifluoromethyl)phenyl)sulfonyl)-3,4-dihydro-2H-benzo[b][1,4]oxazin-2-yl)methanol]",*** (a value in the range of greater than 150 to 200),** (a value in the range of greater than 90 to 150),
< 500 nM,500 to 5000 nM,,,"Cc1cccc(C)c1/C=C/c1ccc2c(c1)N(S(=O)(=O)c1cccc(OC(F)F)c1)C[C@H](CCC(=O)O)O2 [Example 89AC, (S,E)-3-(4-((3-(difluoromethoxy)phenyl)sulfonyl)-6-(2,6-dimethylstyryl)-3,4-dihydro-2H-benzo[b][1,4]-oxazin-2-yl)propanoic acid]",,,
< 500 nM,500 to 5000 nM,,,"COC(=O)CC[C@H]1CN(S(=O)(=O)c2cccc(C(F)(F)F)c2)c2cc(/C(C)=C/c3c(F)cccc3Cl)ccc2O1 [Example 31, (S,E)-Methyl 3-(6-(1-(2-chloro-6-fluorophenyl)prop-1-en-2-yl)-4-((3-(trifluoromethyl)phenyl)sulfonyl)-3,4-dihydro-2H-benzo[b][1,4]oxazin-2-yl)propanoate]",,,
,,,,"COC(=O)CCC[C@H]1CN(S(=O)(=O)c2cccc(C(F)(F)F)c2)c2cc(/C=C/c3c(F)cccc3Cl)ccc2O1 [Example 195E, methyl (S,E)-4-(6-(2-chloro-6-fluorostyryl)-4-((3-(trifluoro-methyl)phenyl)sulfonyl)-3,4-dihydro-2H-benzo[b][1,4]oxazin-2-yl)butanoate]",,,EC50 (RORγ-LBD; [2]): < 500 nM; EC50 (Gal4-RORγ-LBD; [3]): 500 to 5000 nM
,,< 500 nM,500 to 5000 nM,"C/C(=C\c1ccc2c(c1)C(S(=O)(=O)c1cccc(C(F)(F)F)c1)CC(CNC(=O)C1CC1)O2)c1c(F)cccc1Cl (stereo not shown) [Example 183, (E)-N-((6-(2-(2-Chloro-6-fluorophenyl)prop-1-en-1-yl)-4-((3-(trifluoromethyl)phenyl)sulfonyl)chroman-2-yl)methyl)cyclopropanecarboxamide]",*** (a value in the range of greater than 150 to 200),** (a value in the range of greater than 90 to 150),
< 500 nM,500 to 5000 nM,,,"C/C(=C\c1ccc2c(c1C)N(S(=O)(=O)c1cccc(C(F)(F)F)c1)C[C@H](CCC(=O)O)O2)c1c(F)cccc1Cl [Example 58, (S,E)-3-(6-(2-(2-Chloro-6-fluorophenyl)prop-1-en-1-yl)-5-methyl-4-((3-(trifluoromethyl)phenyl)sulfonyl)-3,4-dihydro-2H-benzo[b][1,4]oxazin-2-yl)propanoic acid]",,,
,,< 500 nM,500 to 5000 nM,"CC/C(C)=C\c1ccc2c(c1)N(S(=O)(=O)c1cccc(C(F)(F)F)c1)C[C@H](CCC(=O)O)O2 [Example 191B, (S,Z)-3-(6-(2-methylbut-1-en-1-yl)-4-((3-(trifluoromethyl)-phenyl)sulfonyl)-3,4-dihydro-2H-benzo[b][1,4]oxazin-2-yl)propanoic acid]",*** (a value in the range of greater than 150 to 200),*** (a value in the range of greater than 150 to 200),
,,< 500 nM,< 500 nM,"C/C(=C\c1ccc2c(c1)N(S(=O)(=O)c1cccc(C(F)(F)F)c1)C[C@H](CCN1CCC(C(=O)O)CC1)O2)c1c(F)cccc1Cl [Example 122, (S,E)-1-(2-(6-(2-(2-Chloro-6-fluorophenyl)prop-1-en-1-yl)-4-((3-(trifluoromethyl)phenyl)sulfonyl)-3,4-dihydro-2H-benzo[b][1,4]oxazin-2-yl)ethyl)piperidine-4-carboxylic acid]",*** (a value in the range of greater than 150 to 200),** (a value in the range of greater than 90 to 150),
